# Data: paper PMC8894198, “Biosynthetic Microcin J25 Exerts Strong Antibacterial, Anti-Inflammatory Activities, Low Cytotoxicity Without Increasing Drug-Resistance to Bacteria Target” (Frontiers in Immunology, 2022)
# Several values for one entry are separate records, joined by “and”; a condition that tells them apart may be missing. Equal values may be shown once. Where a SMILES comes first, the peptide text is derived from it. Bridges are numbered along the chain shown (N, C = ends).
# Experiments:
# E. coli K88 = type: cell-based; details: sub-MIC levels, 25-d passage period; six biological replicates
# Method: To quantify the production status of the bacteria, the bacterial density was measured after incubating for 24 h. Cultures with the second highest concentration allowed to grow (OD600 ≥ 2) were diluted 1:100 with MccJ25 MHB at different concentrations than those described above. Cultures that grew above the indicated MIC levels were plated on LB agar plates, and their MIC levels were determined by the broth macrodilution method.
# Salmonella CATT LX2 = type: cell-based; details: source mastitis pathogens
# Method: (§1) The minimum inhibitory concentration (MIC) refers to the lowest concentration that can produce a significant hindrance to bacterial growth in a drug sensitivity test by adopting a broth dilution, with certain refinements and modifications based on the previous description ([25], [26]). In short, MccJ25 was dissolved in sterilized distilled water (SDW), serial 2-fold dilutions were prepared in Mueller-Hinton broth (MHB) through a 96-well microtiter plate, and the final concentration of MccJ25 was maintained in the range of 0.003125 to 256 μg/mL. Then, 2 μL of standard and clinically relevant overnight broth cultures of bacteria were inoculated into each well at a concentration of 5 × 10^6 CFU/mL. Microtiter plates were incubated at 37°C for one full day. Two groups were set up: positive (medium with inoculum) and negative (medium only) controls. The minimum bactericidal concentration (MBC) was measured in LB medium and refers to the first drug dilution value at which the initial bacterial concentration was reduced by 99.99%. The final analysis was determined by the results of three replicated and independent experiments. To further assess and clarify the antimicrobial activity of MccJ25, the protective ability against E. coli adhesion, live/dead assay, and killing curve were performed, the detailed methods were provided in Supplementary Materials .
# Salmonella CATT LX9 = type: cell-based; details: source mastitis pathogens
# Method: as §1
# E. coli WWE921A-2 = type: cell-based; details: source pig tissue
# Method: as §1
# E. coli CVCC1543 = type: cell-based
# Method: as §1
# E. coli LKFZ F2 = type: cell-based; details: source pig stool
# Method: as §1
# E. coli SWI 535 = type: cell-based; details: source pig tissue
# Method: as §1
# Salmonella CATT W14 = type: cell-based; details: source mastitis pathogens
# Method: as §1
# E. coli CVCC1522 = type: cell-based
# Method: as §1
# E. coli 987P = type: cell-based
# Method: as §1
# E. coli 521ZQE = type: cell-based; details: source pig tissue, three independent experiments
# Method: as §1
# E. coli K99 = type: cell-based
# Method: as §1
# [1] = LPS neutralization, chromogenic limulus amebocyte lysate assay; type: biochemical, E. coli; details: 8 μg/mL MccJ25, LPS 1 EU/mL, 37°C, A405
# Method: The neutralizing impacts of MccJ25 on LPS were assessed according to a color-emitting […] assay. Levels of E. coli LPS (1 EU/mL) were prepared and combined with various concentrations of MccJ25 (1 to 128 µg/mL) and inoculated in the wells of sterile microtiter plates at 37°C. Then, 50 μL of the above mixture was extracted, the same volume of […] reagent was added, and the mixture was incubated for 10 min at 37°C. […] The reaction was finished by adding 25% acetic acid, and finally, its absorbance value at 405 nm was measured.
# E. coli LKFZ GZM4 = test: MIC/MBC, clinical isolate; type: cell-based; details: source pig stool
# Method: as §1
# E. coli LKFZ GL2 = test: MIC/MBC, clinical isolate; type: cell-based; details: source pig stool
# Method: as §1
# E. coli K88 (ETEC K88) = test: Killing curves (bactericidal activity at different growth phases); type: cell-based
# Method: Figure 1 Bactericidal activity assay of MccJ25 against E coli K88. Different concentrations of E coli K88 were cultured in LB containing different levels of MccJ25. E coli K88 cells (5 × 10^5 CFU/mL) were incubated and grown to different stages, including early-log (A), late-log (B) and stationary (C) phases. Additionally, bacteria, 5 × 10^8 CFU/mL, were cultured and grown to early-log (D), late-log (E) and stationary (F) phases. Data are means ± standard error of mean from 6 biological replicates.
# A purified single colony of E. coli K88 was inoculated into 5 mL of LB. Then, culture was incubated at 37◦C with shaking at 200 rpm overnight. The next day, the culture was diluted 1:100 in fresh LB and incubated at 37◦C with shaking at 200 rpm again. To test antimicrobial activity, the bacteria were grown until they reached log phase. […] The cultures were serially diluted with sterilized saline water and plated on LB agar at different hours. The plates were incubated at 37◦C overnight to count colony. Colonies were counted to determine CFU/mL. The experiment was conducted with two replicates in three independent trials. A Live/Dead BacLight Bacterial Viability Kit 7 (Molecular Probes, Inc., Eugene) was used to test bacterial viability. […] E. coli K88 cultures were incubated at 37◦C for 2 h and then incubated in the dark at ambient temperature with SYTO 9 and propidium iodide for 15 min. Bacteria were observed using a fluorescence microscope (EVOS XL Cell Imaging System).
# [2] = LB medium, 99.99% reduction, three independent experiments
# [3] = broth dilution in MHB, 37°C, three independent experiments
# [4] = broth dilution in MHB, 37°C, one day, three independent experiments
structure (smiles),measurement,setting,value
"CC[C@H](C)[C@H](NC(=O)CNC(=O)[C@@H](NC(=O)[C@H](Cc1ccccc1)NC(=O)[C@H](Cc1ccc(O)cc1)NC(=O)[C@@H]1CCC(=O)NCC(=O)NCC(=O)N[C@@H](C)C(=O)NCC(=O)N[C@@H](Cc2c[nH]cn2)C(=O)N[C@@H](C(C)C)C(=O)N2CCC[C@H]2C(=O)N1)C(C)C)C(=O)NCC(=O)N[C@H](C(=O)N1CCC[C@H]1C(=O)N[C@H](C(=O)N[C@@H](CO)C(=O)N[C@@H](Cc1ccccc1)C(=O)N[C@@H](Cc1ccc(O)cc1)C(=O)NCC(=O)O)[C@@H](C)CC)[C@@H](C)O [MccJ25, microcin J25] (GGAGHVPEYFVGIGTPISFYG-OH; lactam N-8 (inferred); C-terminus assumed)",resistant mutants during serial passage,E. coli K88,No resistant mutants were detected
same,MBC,Salmonella CATT LX2; [2],0.125 µg/mL
same,MIC,Salmonella CATT LX2; [3],0.030 µg/mL
same,MIC/MBC,Salmonella CATT LX2; ratio,0.240
same,MBC,Salmonella CATT LX9; [2],0.125 µg/mL
same,MIC,Salmonella CATT LX9; [3],0.060 µg/mL
same,MIC/MBC,Salmonella CATT LX9; ratio,0.480
same,MBC,E. coli WWE921A-2; [2],2.000 µg/mL
same,MIC,E. coli WWE921A-2; [3],1.000 µg/mL
same,MIC/MBC,E. coli WWE921A-2; ratio,0.500
same,MBC,E. coli CVCC1543; [2],0.250 µg/mL
same,MIC,E. coli CVCC1543; [4],0.03 µg/mL and 0.030 µg/mL
same,MIC/MBC,E. coli CVCC1543; ratio,0.120
same,MBC,E. coli LKFZ F2; [2],0.500 µg/mL
same,MIC,E. coli LKFZ F2; [3],0.250 µg/mL
same,MIC/MBC,E. coli LKFZ F2; ratio,0.500
same,MBC,E. coli SWI 535; [2],2.000 µg/mL
same,MIC,E. coli SWI 535; [3],0.500 µg/mL
same,MIC/MBC,E. coli SWI 535; ratio,0.250
same,MBC,Salmonella CATT W14; [2],0.250 µg/mL
same,MIC,Salmonella CATT W14; [3],0.060 µg/mL
same,MIC/MBC,Salmonella CATT W14; ratio,0.240
same,MBC,E. coli CVCC1522; [2],0.500 µg/mL
same,MIC,E. coli CVCC1522; [4],0.03 µg/mL and 0.030 µg/mL
same,MIC/MBC,E. coli CVCC1522; ratio,0.060
same,MBC,E. coli 987P; [2],0.500 µg/mL
same,MIC,E. coli 987P; [4],0.030 µg/mL
same,MIC/MBC,E. coli 987P; ratio,0.060
same,MBC,"E. coli 521ZQE; LB medium, 99.99% reduction",2.000 µg/mL
same,MIC,"E. coli 521ZQE; broth dilution in MHB, 37°C",0.250 µg/mL
same,MBC,E. coli K99; [2],0.250 µg/mL
same,MIC,E. coli K99; [4],0.030 µg/mL
same,MIC/MBC,E. coli K99; ratio,0.120
same,LPS neutralization,[1],92.59%
same,MBC,E. coli LKFZ GZM4; [2],1.000 µg/mL
same,MIC,E. coli LKFZ GZM4; [3],0.250 µg/mL
same,MIC/MBC,E. coli LKFZ GZM4; ratio,0.250
same,MBC,E. coli LKFZ GL2; [2],0.500 µg/mL
same,MIC,E. coli LKFZ GL2; [3],0.250 µg/mL
same,MIC/MBC,E. coli LKFZ GL2; ratio,0.500
same,time in which all inoculants were killed,"E. coli K88 (ETEC K88); at the indicated MICs, stationary phase",≤ 6 h
same,time in which all inoculums were killed,"E. coli K88 (ETEC K88); inoculum 5 × 10^5 CFU/mL, 2 × MIC, each growth period (early log, late log, stationary), LB, 37°C",≤ 4 h
same,reduction of bacterial count,"E. coli K88 (ETEC K88); inoculum 5 × 10^5 CFU/mL, 4 × MIC, after 2 h incubation",5 log
same,reduction of bacterial count,"E. coli K88 (ETEC K88); inoculum 5 × 10^5 CFU/mL, at the indicated MICs, at 2 h, all phases",approximately 4 log
same,reduction of bacterial count,"E. coli K88 (ETEC K88); inoculum 5 × 10^8 CFU/mL at log phase, 4 × MIC, 12 h",8 log
same,reduction of bacterial count,"E. coli K88 (ETEC K88); inoculum 5 × 10^8 CFU/mL, 1 × MIC, within 7 h",6 log
